Assay results taken from ChEMBL document CHEMBL1201862, “PubChem BioAssay data set” (2004).
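All cell lines were grown in 96-well plates and treated with compound for 48 hours. GI50 = concentration required for 50% inhibition of growth.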 Active and inactive are the calls of the source. No stated cut-off is given here; in the data, active = GI50 up to about 1.1 µM and inactive = higher.

Legend:
Assay in all cases: DTP human tumour cell line panel, 48 h
UACC-62 = system: UACC-62
NCI/ADR-RES = system: NCI/ADR-RES
Hs-578T = system: Hs-578T
NCI-H522 = system: NCI-H522
M14 = system: M14
MCF7 = system: MCF7
ACHN = system: ACHN
HCT-116 = system: HCT-116
RXF 393 = system: RXF 393
T47D = system: T47D
UO-31 = system: UO-31
COLO 205 = system: COLO 205
U-251 = system: U-251
NCI-H226 = system: NCI-H226
OVCAR-8 = system: OVCAR-8
MOLT-4 = system: MOLT-4
A549 = system: A549
MDA-MB-231 = system: MDA-MB-231
MDA-MB-435 = system: MDA-MB-435
LOX IMVI = system: LOX IMVI

SMILES | GI50 (UACC-62) | GI50 (NCI/ADR-RES) | GI50 (Hs-578T) | GI50 (NCI-H522) | GI50 (M14) | GI50 (MCF7) | GI50 (ACHN) | GI50 (HCT-116) | GI50 (RXF 393) | GI50 (T47D) | GI50 (UO-31) | GI50 (COLO 205) | GI50 (U-251) | GI50 (NCI-H226) | GI50 (OVCAR-8) | GI50 (MOLT-4) | GI50 (A549) | GI50 (MDA-MB-231) | GI50 (MDA-MB-435) | GI50 (LOX IMVI)
O=[N+]([O-])c1ccc2c(c1)C(N1CCN(CCO)CC1)Cc1ccc(F)cc1S2 (stereo not given) | 2.49 µM (inactive) | 10.3 µM (inactive) | 6.75 µM (inactive) | 3.48 µM (inactive) | 3.15 µM (inactive) | 10.1 µM (inactive) | 4.44 µM (inactive) | 5 µM (inactive) | < 0.01 µM (active) | 17.4 µM (inactive) | 4.39 µM (inactive) | 5.48 µM (inactive) | 10.1 µM (inactive) | 9.1 µM (inactive) | 11.3 µM (inactive) | 1.04 µM (active) | 12.1 µM (inactive) | 12.9 µM (inactive) | – | –
CCN(CC)S(=O)(=O)c1ccc2[nH]c(NC(=O)OC)nc2c1 | – | > 100 µM (inactive) | > 100 µM (inactive) | > 100 µM (inactive) | 47.6 µM (inactive) | – | – | 37.4 µM (inactive) | 81.3 µM (inactive) | 53.8 µM (inactive) | 46.3 µM (inactive) | 96.8 µM (inactive) | > 100 µM (inactive) | > 100 µM (inactive) | 45.1 µM (inactive) | 20.4 µM (inactive) | 94.6 µM (inactive) | > 100 µM (inactive) | 15.3 µM (inactive) | 42.6 µM (inactive)
COc1nc(N)c(C#N)c(C#N)c1C#N | – | > 10 µM (inactive) | > 10 µM (inactive) | > 10 µM (inactive) | > 10 µM (inactive) | > 10 µM (inactive) | > 10 µM (inactive) | > 10 µM (inactive) | – | – | – | > 10 µM (inactive) | > 10 µM (inactive) | – | > 10 µM (inactive) | > 10 µM (inactive) | > 10 µM (inactive) | > 10 µM (inactive) | > 10 µM (inactive) | > 10 µM (inactive)
NC(=S)NS(=O)(=O)c1ccc(Cl)cc1Cl | > 100 µM (inactive) | > 100 µM (inactive) | > 100 µM (inactive) | > 100 µM (inactive) | > 100 µM (inactive) | – | > 100 µM (inactive) | > 100 µM (inactive) | > 100 µM (inactive) | > 100 µM (inactive) | > 100 µM (inactive) | > 100 µM (inactive) | > 100 µM (inactive) | > 100 µM (inactive) | > 100 µM (inactive) | > 100 µM (inactive) | > 100 µM (inactive) | > 100 µM (inactive) | > 100 µM (inactive) | > 100 µM (inactive)
c1ccc2sc(C3(N4CCCCCC4)CCCCC3)cc2c1 | 20.4 µM (inactive) | 21.8 µM (inactive) | 22.4 µM (inactive) | 21.1 µM (inactive) | 19.3 µM (inactive) | 17.8 µM (inactive) | 30.8 µM (inactive) | 20.3 µM (inactive) | 17.7 µM (inactive) | – | 20.3 µM (inactive) | 16 µM (inactive) | 19.2 µM (inactive) | 22.6 µM (inactive) | 29.5 µM (inactive) | 15.6 µM (inactive) | 35.2 µM (inactive) | 27.8 µM (inactive) | 25.3 µM (inactive) | 20.6 µM (inactive)
COC1=CC2C(c3cc4ccccc4n3S(=O)(=O)c3ccccc3)CC1CN2C(=O)OCc1ccccc1 (stereo not given) | 29.8 µM (inactive) | 35.7 µM (inactive) | 23.8 µM (inactive) | 18 µM (inactive) | 19.6 µM (inactive) | 39.9 µM (inactive) | 28.6 µM (inactive) | 28.2 µM (inactive) | 14.4 µM (inactive) | – | 27.2 µM (inactive) | 16.4 µM (inactive) | 37.3 µM (inactive) | 27.4 µM (inactive) | 50.8 µM (inactive) | – | 20.5 µM (inactive) | 20 µM (inactive) | 24.2 µM (inactive) | 24.8 µM (inactive)
COC(=O)C(CC12CC3CC(CC(C3)C1)C2)NC(=O)C(N)CC(=O)O (stereo not given) | > 100 µM (inactive) | > 100 µM (inactive) | > 100 µM (inactive) | > 100 µM (inactive) | – | – | > 100 µM (inactive) | > 100 µM (inactive) | > 100 µM (inactive) | > 100 µM (inactive) | > 100 µM (inactive) | > 100 µM (inactive) | > 100 µM (inactive) | – | > 100 µM (inactive) | > 100 µM (inactive) | > 100 µM (inactive) | – | > 100 µM (inactive) | –
COC(=O)C1SC(SC)=NC12c1ccccc1Nc1ccccc12 (stereo not given) | 16.6 µM (inactive) | 39.9 µM (inactive) | 31.7 µM (inactive) | 19.5 µM (inactive) | 18.5 µM (inactive) | 27.7 µM (inactive) | 36.3 µM (inactive) | 31.7 µM (inactive) | 67.3 µM (inactive) | 32.2 µM (inactive) | 69.2 µM (inactive) | 20.5 µM (inactive) | 25.2 µM (inactive) | 53.6 µM (inactive) | 33.3 µM (inactive) | 22.1 µM (inactive) | 28.3 µM (inactive) | – | 27 µM (inactive) | 18 µM (inactive)
